# Assay results: ChEMBL document CHEMBL3400056, “Novel thiazolo[3,2-b]-1,2,4-triazoles derived from naproxen with analgesic/anti-inflammatory properties: Synthesis, biological evaluation and molecular modeling studies” (Bioorg Med Chem, 2015)
# What was measured:
# Mus musculus [1] = test: Gastrointestinal toxicity in Swiss albino mouse assessed as ulcer index at 50 mg/kg, po measured after 2 hrs; type: organism-based; parameters: dose 50 mg/kg, route oral; conditions: in vivo
# Mus musculus [2] = test: Antiinflammatory activity in Swiss albino mouse assessed as inhibition of carrageenan-induced paw edema at 50 mg/kg, po administered 1 hr prior to carrageenan challenge measured after 2 hrs relative to control; type: functional; parameters: scale not given: the % may be the effect or the level left
# Mus musculus [3] = test: Analgesic activity in Swiss albino mouse assessed as latancy of withdrawing tail at 50 mg/kg, po measured after 2 hrs by tail flick test relative to control; type: functional
# Mus musculus [4] = test: Analgesic activity in Swiss albino mouse assessed as time of licking paws at 100 mg/kg, po measured after 2 hrs by tail flick test relative to control; type: functional
# Mus musculus [5] = test: Analgesic activity in Swiss albino mouse assessed as latancy of withdrawing tail at 100 mg/kg, po measured after 2 hrs by tail flick test relative to control; type: functional
# Mus musculus [6] = test: Gastrointestinal toxicity in Swiss albino mouse assessed as ulcer index at 100 mg/kg, po measured after 2 hrs; type: organism-based; parameters: dose 100 mg/kg, route oral; conditions: in vivo
# Mus musculus [7] = test: Antiinflammatory activity in Swiss albino mouse assessed as inhibition of carrageenan-induced paw edema at 100 mg/kg, po administered 1 hr prior to carrageenan challenge measured after 2 hrs relative to control; type: functional; parameters: scale not given: the % may be the effect or the level left
# Mus musculus [8] = test: Analgesic activity in Swiss albino mouse assessed as time of licking paws at 50 mg/kg, po measured after 2 hrs by tail flick test relative to control; type: functional
# Mus musculus [9] = test: Acute toxicity in Swiss albino mouse assessed as weight loss at 50 to 100 mg/kg, po measured up to 14 days; type: organism-based; parameters: dose 50-100 mg/kg, route oral; conditions: in vivo, 336 h
# Mus musculus [10] = test: Acute toxicity in Swiss albino mouse assessed as mortality at 50 to 100 mg/kg, po measured after 6 hrs to 14 days; type: organism-based; parameters: dose 50-100 mg/kg, route oral; conditions: in vivo
# Mus musculus [11] = test: Acute toxicity in Swiss albino mouse assessed as behavioral changes at 50 to 100 mg/kg, po measured up to 14 days; type: organism-based; parameters: dose 50-100 mg/kg, route oral; conditions: in vivo, 336 h
Structure (SMILES),UI (Mus musculus [1]),Activity (Mus musculus [2]) [%],MPE (Mus musculus [3]) [%],MPE (Mus musculus [4]) [%],MPE (Mus musculus [5]) [%],UI (Mus musculus [6]),Activity (Mus musculus [7]) [%],MPE (Mus musculus [8]) [%],Activity (Mus musculus [9]),Activity (Mus musculus [10]),Activity (Mus musculus [11])
COc1ccc2cc([C@H](C)C(=O)O)ccc2c1 [NAPROXEN],3.6,49.2,47.6,38.6,49.4,4.2,53.3,39.3,,,
COc1ccc2cc(C(C)c3nc4s/c(=C\c5sccc5C)c(=O)n4n3)ccc2c1 (stereo unspecified),2.6,22.5,15.2,18.3,10.2,2.7,19.7,13.5,Non-toxic,Non-toxic,Non-toxic
COc1ccc2cc(C(C)c3nc4s/c(=C\c5cccc(OC(C)=O)c5)c(=O)n4n3)ccc2c1 (stereo unspecified),2.9,31.6,19.2,20.7,20,2.4,29.1,17.5,Non-toxic,Non-toxic,Non-toxic
COc1ccc2cc(C(C)c3nc4s/c(=C\c5ccccc5OCc5ccccc5)c(=O)n4n3)ccc2c1 (stereo unspecified),2.4,43,18.9,25.2,18,2.6,33.9,17.7,Non-toxic,Non-toxic,Non-toxic
COc1ccc2cc(C(C)c3nc4s/c(=C\c5ccc(OC(C)=O)cc5)c(=O)n4n3)ccc2c1 (stereo unspecified),2.9,36.2,23.3,19.9,18.2,2.7,33.6,24.9,Non-toxic,Non-toxic,Non-toxic
COc1ccc2cc(C(C)c3nc4s/c(=C\c5ccccc5OC(C)=O)c(=O)n4n3)ccc2c1 (stereo unspecified),2.9,26.6,27.8,27,13.3,3,44.9,19.8,Non-toxic,Non-toxic,Non-toxic
COc1ccc2cc(C(C)c3nc4s/c(=C\c5ccc(C)o5)c(=O)n4n3)ccc2c1 (stereo unspecified),1.3,41,38.1,35.3,48.6,2.7,37,23.9,Non-toxic,Non-toxic,Non-toxic
COc1ccc2cc(C(C)c3nc4s/c(=C\c5cccc(OCc6ccccc6)c5)c(=O)n4n3)ccc2c1 (stereo unspecified),2.9,37.9,24.8,19.2,22.3,2.9,34.4,21.5,Non-toxic,Non-toxic,Non-toxic
COc1ccc2cc(C(C)c3n[nH]c(=S)[nH]3)ccc2c1 (stereo unspecified),2.1,30.1,16.8,8.2,22.2,2.3,21.3,18.7,Non-toxic,Non-toxic,Non-toxic
COc1ccc2cc(C(C)c3nc4s/c(=C\c5ccc6ccccc6c5)c(=O)n4n3)ccc2c1 (stereo unspecified),2,37.9,30,30.3,32.2,3.4,44.9,17.7,Non-toxic,Non-toxic,Non-toxic
COc1ccc2cc(C(C)c3nc4s/c(=C\c5ccco5)c(=O)n4n3)ccc2c1 (stereo unspecified),2.6,15.2,13.3,22,19.3,1.9,26,19.7,Non-toxic,Non-toxic,Non-toxic
COc1ccc2cc(C(C)c3nc4s/c(=C\c5ccc(OCc6ccccc6)cc5)c(=O)n4n3)ccc2c1 (stereo unspecified),3,44.5,24.4,14.5,28.1,2.7,32.5,23.6,Non-toxic,Non-toxic,Non-toxic
COc1ccc2cc(C(C)c3nc4s/c(=C\c5cc(Br)cs5)c(=O)n4n3)ccc2c1 (stereo unspecified),2.9,43,28.7,21.2,19,2.9,32.3,20.1,Non-toxic,Non-toxic,Non-toxic
COc1ccc2cc(C(C)c3nc4s/c(=C\c5cccs5)c(=O)n4n3)ccc2c1 (stereo unspecified),2.6,21.7,10.5,21.3,24.9,2.3,21.2,16.2,Non-toxic,Non-toxic,Non-toxic
COc1ccc2cc(C(C)c3nc4s/c(=C\C=C\c5ccccc5)c(=O)n4n3)ccc2c1 (stereo unspecified),2.4,36.2,28.4,24.8,30.9,3.2,37,15.8,Non-toxic,Non-toxic,Non-toxic
COc1ccc2cc(C(C)c3nc4s/c(=C\c5cn(C(C)=O)c6ccccc56)c(=O)n4n3)ccc2c1 (stereo unspecified),2.7,37.7,30.8,18.7,28.3,2.4,43.3,17.5,Non-toxic,Non-toxic,Non-toxic
COc1ccc2c3c1O[C@H]1C(=O)CC[C@@]4(O)[C@@H](C2)N(C)CC[C@]314 [OXYCODONE],1.5,0.9,63.3,52.9,66.9,1.5,3.9,52.9,,,
